{"source": "paper PMC5493638", "about": "“Adiponectin is an endogenous anti-fibrotic mediator and therapeutic target” (Scientific Reports, 2017)", "key": {"[1]": {"system": "normal dermal fibroblasts", "experiment": "TGF-ß-induced fibrotic gene expression in skin fibroblasts (qPCR, Western blot)", "format": "cell-based, human", "text": "(§1) Primary cultures of healthy adult and SSc skin fibroblasts, and neonatal fibroblasts, were established by explantation. The clinical features of the subjects are shown in Supplementary Table 5. Protocols for skin biopsies were approved by the Institutional Review Board at Northwestern University. Embryonic fibroblasts from AMP protein kinase (AMPK)^−/− mice and wild-type mice were a gift from Yu-Ying He (University of Chicago). When cultures reached confluence, serum-free media supplemented with 0.1% bovine serum albumin (BSA) were added prior to TGF-β2 (Peprotech, Rocky Hill, NJ) or/and ADP355 (10 μM)[37], and incubation continued for a further 24 h. Cytotoxicity was evaluated using LDH assays (Biovision).\n(§2) RNA was isolated from skin samples using RNAeasy Fibrous Tissue Mini kit (Qiagen, Valencia, CA), or from fibroblast cultures, using the RNeasy Plus mini kit (Qiagen), and processed for qPCR as described. mRNA levels were normalized to the levels of 18 S RNA or GAPDH, and the relative amounts were calculated using the 2^−ΔΔCt method.\nAt the end of the experiments, fibroblasts were harvested and whole cell lysates (100 μg) were subjected to Western-blot analysis[25] using antibodies for Type I collagen (Southern Biotech), α-SMA (Sigma), phospho-Smad2/3 (Cell-Signaling), phospho-FAK (pY397, Cell Signaling), total-FAK (Cell Signaling) or GAPDH (Zymed, San Francisco, CA). […]"}, "phospho-Smad2/3": {"system": "phospho-Smad2/3", "experiment": "Smad2/3 phosphorylation elicited by TGF-ß (Western)", "format": "cell-based, human", "settings": "fibroblasts treated with ADP355", "description": "(§3) At the end of the experiments, fibroblasts were harvested and whole cell lysates (100 μg) were subjected to Western-blot analysis[25] using antibodies for Type I collagen (Southern Biotech), α-SMA (Sigma), phospho-Smad2/3 (Cell-Signaling), phospho-FAK (pY397, Cell Signaling), total-FAK (Cell Signaling) or GAPDH (Zymed, San Francisco, CA). Electrophoretic bands were detected using enhanced chemiluminescence reagents (Pierce Biotechnology, Rockford, IL), and band intensities were quantified with Image J software. Results were normalized with GAPDH levels in each sample."}, "[2]": {"system": "normal dermal fibroblasts", "experiment": "Scratch assay of fibroblast migration", "format": "cell-based, human", "settings": "widths after 48 h", "description": "Figure 4 ADP355 inhibits fibrotic responses in normal and SSc skin fibroblasts. (a–d). Confluent cultures of normal dermal fibroblasts were preincubated with ADP355, followed by TGF-β2 for 24 h. (a) Total RNA was subjected to real-time qPCR. Results are mean ± SD of triplicate determinations. *p < 0.05, **p < 0.01. (b) Western blot of whole cell lysates. Representative results. Fold change in Type I collagen (Cgn I) levels relative to control is shown at bottom. (c) Fibroblasts were transiently transfected with [SBE]4-luc reporter plasmids, and cell lysates were assayed for their luciferase activities. Results are mean ± SD of triplicate determinations. **p < 0.001 (d) Scratch assays were performed and the widths determined after 48 h. Results are mean ± SEM of triplicate determinations at three randomly selected sites. (e) 3D human skin equivalents populated with normal fibroblasts were incubated in media with ADP355 and TGF-β2 for 6 days. RNA was isolated for qPCR. Results are mean ± SD of triplicate determinations *p < 0.05, **p < 0.001. (f) SSc skin fibroblasts (n = 5) incubated with ADP355 for 24 h were immunostained with antibodies to αSMA (green) or type I collagen (Cgn1, red), or stained with DAPI (blue). Left panels, representative immunofluorescence photomicrographs (original magnification × 400). Right panels, immunofluorescence intensity. […]"}, "SSc skin fibroblasts": {"system": "SSc skin fibroblasts", "experiment": "Constitutive fibrotic gene expression in SSc fibroblasts", "format": "cell-based, human", "settings": "unstimulated SSc fibroblasts (n = 5), ADP355 24 h, αSMA and type I collagen immunofluorescence", "description": "(§4) Normal skin fibroblasts (10,000 cells/well) seeded in 8-well Lab-Tek II chamber glass slides (Nalge Nunc International, Naperville, IL) were incubated in media with indicated reagents. At the end of the experiments, cells were fixed, permeabilized, and incubated with primary antibodies to α-SMA (1:500, Sigma), phospho-FAK (pY397; 1:50, Abcam), vinculin (1:200, Abcam), Alexa Fluor 488 phalloidin (1:200, Invitrogen) or Type I collagen (1:100, Southern Biotech), followed by appropriate secondary antibodies conjugated to Alexa Fluor (Invitrogen), and evaluated under a Nikon C1Si confocal microscope.\nas §1"}, "AMPK-null MEFs": {"system": "AMPK-null MEFs", "experiment": "Anti-fibrotic activity in AMPK-null MEFs (qPCR)", "format": "cell-based", "settings": "mouse embryonic fibroblasts, ADP355 24 h", "text": "as §1, §2"}, "p-FAK Y397": {"system": "p-FAK Y397", "experiment": "FAK phosphorylation and focal adhesion complex assembly", "format": "cell-based, human", "settings": "normal skin fibroblasts, pretreatment with ADP355", "description": "as §4, §3"}}, "note": "Residues, ends and D or L forms follow the SMILES beside them."}
{"smiles": "CCC[C@H](NC(=O)[C@@H]1CCCN1C(=O)[C@@H](NC(=O)[C@H](N)CC(N)=O)[C@@H](C)CC)C(=O)N[C@@H](CC(C)C)C(=O)N[C@@H](Cc1ccc(O)cc1)C(=O)N[C@H](CO)C(=O)N[C@@H](Cc1ccccc1)C(=O)N[C@@H](C)C(=O)N[C@H](CO)C(N)=O", "note": "[ADP355, H-DAsn-Ile-Pro-Nva-Leu-Tyr-DSer-Phe-Ala-DSer-NH2] (HELM PEPTIDE1{[dN].I.P.[Nva].L.Y.[dS].F.A.[dS].[am]}$$$$V2.0)", "values": [{"measurement": "inhibitory effects on fibrotic gene expression", "setting": "[1]; adult skin fibroblasts, data not shown", "value": "Comparable inhibitory effects"}, {"measurement": "COL1A1, COL1A2, ASMA, and fibronectin (FN) gene expression induced by TGF-ß", "setting": "[1]; neonatal skin fibroblasts, ADP355 10 μM preincubation then TGF-β2 24 h, qPCR and Western blot", "value": "potent abrogation"}, {"measurement": "Smad2/3 phosphorylation elicited by TGF-ß", "setting": "phospho-Smad2/3", "value": "partially reduced"}, {"measurement": "stimulation of fibroblast migration", "setting": "[2]", "value": "abrogated the stimulation of fibroblast migration"}, {"measurement": "constitutive fibrotic gene expression", "setting": "SSc skin fibroblasts", "value": "mitigated constitutive fibrotic gene expression"}, {"measurement": "anti-fibrotic activity in AMPK-null MEFs", "setting": "AMPK-null MEFs", "value": "failed to exert anti-fibrotic activity"}, {"measurement": "FAK activation and focal adhesion complex assembly augmented by TGF-ß", "setting": "p-FAK Y397", "value": "substantially attenuated"}]}
